Measured values taken from ChEMBL document CHEMBL1153303, “Iodine-catalyzed one-pot synthesis and antimalarial activity evaluation of symmetrically and asymmetrically substituted 3,6-diphenyl[1,2,4,5]tetraoxanes” (Bioorg Med Chem Lett, 2009).

How the values were obtained:
[1] = Selectivity index, ratio of IC50 for african green monkey (Cercopithecus aethiops) Vero cells to IC50 for Plasmodium falciparum D6; format: toxicity, cell-based; details: read-out: Ratio IC50
[2] = system: Vero; experiment: Cytotoxicity against african green monkey Vero cells up to 16.72 uM after 72 hrs by neutral red assay; format: cell-based; details: chlorocebus sabaeus
[3] = Selectivity index, ratio of IC50 for african green monkey (Cercopithecus aethiops) Vero cells to IC50 for Plasmodium falciparum W2; format: toxicity, cell-based; details: read-out: Ratio IC50
[4] = system: Plasmodium falciparum; experiment: Antimalarial activity against chloroquine-sensitive Plasmodium falciparum D6 in erythrocytes after 72 hrs by LDH activity; format: functional, organism-based; details: D6, 72 h
[5] = system: Plasmodium falciparum; experiment: Antimalarial activity against chloroquine-resistant Plasmodium falciparum W2 in erythrocytes after 72 hrs by LDH activity; format: functional, organism-based; details: W2, 72 h

Structure (SMILES)	selectivity ratio [1]	Activity [2]	selectivity ratio [3]	IC50 [4] [nM]	IC50 [5] [µM]
CC(C)(C)c1ccc(C2OOC(c3ccc(C(C)(C)C)cc3)OO2)cc1 (stereo not drawn)	> 6.1	Non-toxic	> 3.4	–	–
Cc1ccc(C2OOC(c3ccc(C(C)C)cc3)OO2)cc1 (stereo not drawn)	> 26.4	Non-toxic	> 20.7	–	–
COC(=O)c1ccc(C2OOC(c3ccc(C)cc3)OO2)cc1 (stereo not drawn)	> 4	Non-toxic	> 2.5	3790	6.01
CCCc1ccc(C2OOC(c3ccc(CCC)cc3)OO2)cc1 (stereo not drawn)	> 23.8	Non-toxic	> 19	–	–
CCCCc1ccc(C2OOC(c3ccc(CCCC)cc3)OO2)cc1 (stereo not drawn)	> 3.7	Non-toxic	> 2.8	–	–
CCc1ccc(C2OOC(c3ccc(C)cc3)OO2)cc1 (stereo not drawn)	> 43.6	Non-toxic	> 36.7	–	–
Cc1ccc(C2OOC(c3ccc(C(C)(C)C)cc3)OO2)cc1 (stereo not drawn)	> 25.1	Non-toxic	> 19	–	–
COc1ccc(C2OOC(c3ccc(C)cc3)OO2)cc1 (stereo not drawn)	> 21.6	Non-toxic	> 15.4	–	–
CC(C)c1ccc(C2OOC(c3ccc(C(C)C)cc3)OO2)cc1 (stereo not drawn)	> 21.6	Non-toxic	> 14	–	–
CCc1ccc(C2OOC(c3ccc(CC)cc3)OO2)cc1 (stereo not drawn)	> 15.9	Non-toxic	> 15.9	990	–
C[C@@H]1CC[C@H]2[C@@H](C)C(=O)O[C@@H]3O[C@@]4(C)CC[C@@H]1[C@]32OO4 [ARTEMISININ]	> 476	Non-toxic	> 1400	–	0.015
CCN(CC)CCCC(C)Nc1ccnc2cc(Cl)ccc12 (stereo not drawn) [CHLOROQUINE]	–	Non-toxic	–	–	–
